From patent US4389414A, “Prostaglandin compositions” (Syntex (U.S.A.) Inc., priority 1981, dated 1983)
Values joined by “and” are separate entries in the source; they are usually repeats but may differ in a detail not shown here. Identical values can stand only once.

Assay: Absorption rate of carbon-14 Compound A from different vehicles after SQ or IM injection (Example 2, Table I)
Type: in vivo, rats
Settings: for Relative Percent Absorption: compared to aqueous buffer over 6 hours
Method: A series of experiments was carried out to determine the absorption rate of a compound which are useful in the composition of this invention as compared to other compositions which are not included within the scope of the claims of the invention. In each experiment 56 rats were used. Two groups of 27 rats are required for the test formulations and the two remaining rats are used to obtain blank plasma samples. […] Each composition is prepared by dissolving 2.7 milligrams of the compound in 10 milliliters of the solvent. This represents approximately 5 microcuries of carbon 14 and 41 micrograms of dl-9α,11α,15α-trihydroxy-16-phenoxy-17,18,19,20-tetranorprosta-4,5,13-trans-trienoic acid (Compound A). Blood samples from each of three rats from each group are obtained by […] at the following time points after injection: 15 minutes, 30 minutes, 45 minutes, 60 minutes, 2 hours, 3 hours, 4 hours, 5 hours and 6 hours. The two untreated rats are sampled to obtain blank plasma sample.
*Compared to aqueous buffer over 6 hours.

[1] = vehicle 90% Glycerin H2O, SQ, .15 ml, 5 μCi
[2] = vehicle Aq. Buffer, IM, .15 ml, 5 μCi
[3] = vehicle Aq. Buffer, SQ, .15 ml, 5 μCi
[4] = vehicle Glycerin, SQ, .15 ml, 5 μCi
[5] = vehicle PEG 400, IM, .15 ml, 5 μCi
[6] = vehicle PEG 400, SQ, .15 ml, 5 μCi
[7] = vehicle PEG 400, SQ, .30 ml, 10 μCi

With `O=C(O)CCC=C=CC[C@@H]1[C@@H](/C=C/[C@@H](O)COc2ccccc2)[C@H](O)C[C@@H]1O` (relative stereo) [Compound A, dl-9α,11α,15α-trihydroxy-16-phenoxy-17,18,19,20-tetranorprosta-4,5,13-trans-trienoic acid] the “Absorption Rate Constant Ka” value [1] was 6.5 hr^1, the “Relative Percent Absorption” value [1] was 51.5% and the “Absorption Rate Constant Ka” value [2] was 10.14 hr^1. For the same compound, the “Relative Percent Absorption” value [2] was 100%, the “Absorption Rate Constant Ka” value [3] was 10.14 hr^1 and the “Relative Percent Absorption” value [3] was 60.9%. For the same compound, the “Absorption Rate Constant Ka” value [4] was 5.0 hr^1, the “Relative Percent Absorption” value [4] was 50.4% and the “Absorption Rate Constant Ka” value [5] was 3.7 hr^1. The “Relative Percent Absorption” value [5] was 35.5%, the “Absorption Rate Constant Ka” value [6] was 3.7 hr^1 and the “Relative Percent Absorption” value [6] was 27.6% and 31.4%. The “Absorption Rate Constant Ka” value [7] was 3.7 hr^1 and the “Relative Percent Absorption” value [7] was 26.2%.
